The source of these data is PubChem BioAssay (NCI).

Each structure is given as a SMILES string.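 How tested: cells in 96-well plates exposed to compound for 48 hours at five concentrations. GI50 is the concentration that inhibits growth by half. TGI marks complete inhibition of growth.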 Some results are limits rather than exact numbers.

Test systems include A549 NSCLC; CAKI-1 renal; HL-60(TB) leukemia; NCI-H460 lung; SK-MEL-28 melanoma; SNB-19 CNS; SW-620 colon; TK-10 renal; K-562 leukemia.
Common to all, as to assay: NCI-60 cell line screen, 48 h

In the case of `Cc1ccc(C)c(N2C/C(=N\NC(=O)CC#N)C(c3nc4ccccc4s3)C(=O)C2=O)c1` (stereo not drawn), the TGI in the test on A549 NSCLC, in the test with CAKI-1 renal, in the test on HL-60(TB) leukemia, in the test on NCI-H460 lung, in the test on SK-MEL-28 melanoma and with SNB-19 CNS was greater than 100 µM each time. Further, the TGI in the test on SW-620 colon and in the test on TK-10 renal was greater than 100 µM throughout.

For the compound `COc1c(C)n(CCO)ccc1=O`, the TGI with A549 NSCLC, with CAKI-1 renal, in the test on HL-60(TB) leukemia, in the test on K-562 leukemia, in the test on NCI-H460 lung and with SK-MEL-28 melanoma was greater than 100 µM in each case. Besides, the TGI with SNB-19 CNS, in the test with SW-620 colon and in the test on TK-10 renal was greater than 100 µM each time.

For the compound `COc1cccc(/C=N/[N-]C(=O)c2ccncc2)c1[O-].COc1cccc(/C=N/[N-]C(=O)c2ccncc2)c1[O-].[O]=[U](=[O])([OH2+])[OH2+]`, the GI50 is 27.9 µM with A549 NSCLC; 3.91 µM in the test with CAKI-1 renal; 2.43 µM in the test with HL-60(TB) leukemia; 5.29 µM in the test on K-562 leukemia; 3.46 µM with NCI-H460 lung; 10 µM with SK-MEL-28 melanoma. The figures for the GI50 with SNB-19 CNS, in the test on SW-620 colon and in the test with TK-10 renal were 9.44 µM, 7.81 µM and 13.1 µM, respectively. The TGI was greater than 100 µM with A549 NSCLC; 22.1 µM in the test on CAKI-1 renal; greater than 100 µM in the test with HL-60(TB) leukemia; greater than 100 µM in the test with K-562 leukemia; greater than 40.3 µM with NCI-H460 lung; greater than 56.7 µM with SK-MEL-28 melanoma. In addition, the TGI was greater than 100 µM in the test on SNB-19 CNS, greater than 100 µM in the test with SW-620 colon and greater than 31.6 µM in the test on TK-10 renal.

`CC(C)(C)c1ccc2c(c1)S(=O)(=O)Nc1ccc(Cl)cc1NS(=O)(=O)c1cc(C(C)(C)C)ccc1OCCOCCOCCO2`: the TGI with A549 NSCLC, in the test with CAKI-1 renal, in the test with HL-60(TB) leukemia, with K-562 leukemia, in the test with NCI-H460 lung and with SK-MEL-28 melanoma was greater than 100 µM throughout. In addition, the TGI in the test on SNB-19 CNS, in the test on SW-620 colon and in the test with TK-10 renal was greater than 100 µM throughout.

For `CCOC(=O)NC(=O)c1cn(C2CCCCC2)c(=O)[nH]c1=O`, the TGI in the test on A549 NSCLC, in the test with CAKI-1 renal, in the test with HL-60(TB) leukemia, in the test with K-562 leukemia, in the test on NCI-H460 lung and with SK-MEL-28 melanoma was greater than 100 µM in each case. Further, the TGI in the test on SNB-19 CNS, in the test on SW-620 colon and in the test on TK-10 renal was greater than 100 µM each time.

`Nc1c(-c2ccccc2-c2c(N)[n+]([O-])c3ccccc3[n+]2[O-])[n+]([O-])c2ccccc2[n+]1[O-]`: the TGI in the test with A549 NSCLC is greater than 100 µM; with CAKI-1 renal, greater than 100 µM; in the test with HL-60(TB) leukemia it was greater than 31.3 µM; in the test with K-562 leukemia, greater than 71.8 µM; in the test with NCI-H460 lung it was 18.5 µM; in the test on SK-MEL-28 melanoma, greater than 100 µM. Further, the TGI in the test on SNB-19 CNS, with SW-620 colon and in the test on TK-10 renal was greater than 100 µM each time.

With `O=[N+]([O-])c1cccc(C2=NOC(C3CCCCC3)C2)c1` (stereo not drawn), the TGI in the test on A549 NSCLC, in the test with HL-60(TB) leukemia, in the test with K-562 leukemia, in the test on NCI-H460 lung, in the test with SK-MEL-28 melanoma and with SW-620 colon was greater than 100 µM throughout. Moreover, in the test with TK-10 renal, the TGI was greater than 100 µM.

Consider `CCOP(=O)(OCC)C(C(=O)OC)C(=O)C(=O)Nc1ccc(Cl)cc1Cl` (stereo not drawn), for which the TGI with A549 NSCLC, with CAKI-1 renal, with HL-60(TB) leukemia, in the test on K-562 leukemia, with NCI-H460 lung and with SK-MEL-28 melanoma was greater than 100 µM throughout. Moreover, the TGI in the test with SNB-19 CNS, with SW-620 colon and in the test on TK-10 renal was greater than 100 µM throughout.

For `Nc1ccccc1C(=O)/C=C/c1c(O)ccc2ccccc12`, the TGI in the test on A549 NSCLC, in the test on CAKI-1 renal, in the test on HL-60(TB) leukemia, in the test on K-562 leukemia, in the test on NCI-H460 lung and with SK-MEL-28 melanoma was greater than 100 µM in each case. In addition, the TGI with SNB-19 CNS, in the test with SW-620 colon and in the test on TK-10 renal was greater than 100 µM each time.

Take `Nc1nc(-c2ccc(Cl)c([N+](=O)[O-])c2)cs1`: the TGI with A549 NSCLC, in the test with CAKI-1 renal, with HL-60(TB) leukemia, with K-562 leukemia, with NCI-H460 lung and with SNB-19 CNS was greater than 100 µM throughout. Further, the TGI in the test on SW-620 colon and in the test with TK-10 renal was greater than 100 µM throughout.

Take `CCOCN1COCN(C)C1=O`: the TGI in the test on A549 NSCLC, in the test on CAKI-1 renal, in the test with K-562 leukemia, in the test on NCI-H460 lung, with SK-MEL-28 melanoma and in the test with SNB-19 CNS was greater than 100 µM in each case. The TGI in the test on SW-620 colon and in the test on TK-10 renal was greater than 100 µM throughout.

Take `CC1=C(C#N)C(=O)CC(c2ccc(Cl)cc2)N(C)N1` (stereo not drawn): the TGI in the test on A549 NSCLC, with CAKI-1 renal, with HL-60(TB) leukemia, in the test with NCI-H460 lung, with SK-MEL-28 melanoma and with SNB-19 CNS was greater than 100 µM throughout. Further, the TGI in the test on SW-620 colon and in the test on TK-10 renal was greater than 100 µM in each case.

As to `NC(=O)C(=O)CC(=O)c1ccccc1NC1=CC(=O)C(=O)c2ccccc21`, the TGI in the test with A549 NSCLC was greater than 100 µM; in the test on CAKI-1 renal, greater than 100 µM; in the test with HL-60(TB) leukemia, greater than 76.6 µM; with K-562 leukemia, greater than 100 µM; with NCI-H460 lung, greater than 100 µM; in the test on SK-MEL-28 melanoma, greater than 100 µM. Further, the TGI in the test on SNB-19 CNS, in the test with SW-620 colon and with TK-10 renal was greater than 100 µM in each case.

For `CCN1c2ccccc2-c2c3c1cc(C)cc3c1ccccc1[n+]2CC`, the TGI in the test on A549 NSCLC came to 13.8 µM; with CAKI-1 renal, 5.88 µM; in the test with K-562 leukemia, 2.12 µM; with NCI-H460 lung it was 2.73 µM; with SK-MEL-28 melanoma it was 2.46 µM; in the test on SNB-19 CNS, 3.16 µM. The TGI in the test on SW-620 colon was 6.63 µM; in the test on TK-10 renal it was 9.66 µM.
